From PubChem BioAssay (NCI)
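Dose response: 5 concentrations. Exposure: 48 h. Format: 96-well plates. Endpoint: linear interpolation; highest concentration if not reached. Abbreviation: GI50, concentration required for 50% inhibition of growth. TGI: total growth inhibition.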

Assays:
Test in all cases: NCI tumour cell line growth inhibition, 48 h
HCC-2998 colon = system: HCC-2998 colon
NCI-H460 lung = system: NCI-H460 lung
SF-295 CNS = system: SF-295 CNS
CAKI-1 renal = system: CAKI-1 renal
T-47D breast = system: T-47D breast
SF-268 CNS = system: SF-268 CNS
HT29 colon = system: HT29 colon
UO-31 renal = system: UO-31 renal
NCI-H522 lung = system: NCI-H522 lung
OVCAR-4 ovarian = system: OVCAR-4 ovarian
SR leukemia = system: SR leukemia
OVCAR-5 ovarian = system: OVCAR-5 ovarian
HL-60(TB) leukemia = system: HL-60(TB) leukemia
M14 melanoma = system: M14 melanoma
HOP-92 NSCLC = system: HOP-92 NSCLC
SNB-19 CNS = system: SNB-19 CNS
COLO 205 colon = system: COLO 205 colon
TK-10 renal = system: TK-10 renal
HCT-116 colon = system: HCT-116 colon
IGROV1 ovarian = system: IGROV1 ovarian
U251 CNS = system: U251 CNS
OVCAR-8 ovarian = system: OVCAR-8 ovarian
K-562 leukemia = system: K-562 leukemia
KM12 colon = system: KM12 colon
SK-MEL-28 melanoma = system: SK-MEL-28 melanoma
MDA-MB-435 = system: MDA-MB-435
MCF7 breast = system: MCF7 breast
NCI/ADR-RES ovarian = system: NCI/ADR-RES ovarian
MALME-3M melanoma = system: MALME-3M melanoma
SK-MEL-2 melanoma = system: SK-MEL-2 melanoma
A498 renal = system: A498 renal
UACC-62 melanoma = system: UACC-62 melanoma
NCI-H226 lung = system: NCI-H226 lung
BT-549 breast = system: BT-549 breast
SW-620 colon = system: SW-620 colon
OVCAR-3 ovarian = system: OVCAR-3 ovarian
CCRF-CEM leukemia = system: CCRF-CEM leukemia
EKVX NSCLC = system: EKVX NSCLC
UACC-257 melanoma = system: UACC-257 melanoma
RPMI-8226 leukemia = system: RPMI-8226 leukemia
ACHN renal = system: ACHN renal
HS 578T breast = system: HS 578T breast
DU-145 prostate = system: DU-145 prostate
SK-OV-3 ovarian = system: SK-OV-3 ovarian
PC-3 prostate = system: PC-3 prostate
NCI-H23 lung = system: NCI-H23 lung
SN12C renal = system: SN12C renal
SK-MEL-5 melanoma = system: SK-MEL-5 melanoma
786-0 renal = system: 786-0 renal
A549 NSCLC = system: A549 NSCLC
MDA-MB-231 breast = system: MDA-MB-231 breast
MOLT-4 leukemia = system: MOLT-4 leukemia
LOX IMVI melanoma = system: LOX IMVI melanoma
SNB-75 CNS = system: SNB-75 CNS
HCT-15 colon = system: HCT-15 colon
SF-539 CNS = system: SF-539 CNS
HOP-62 NSCLC = system: HOP-62 NSCLC

## Cc1nc(Nc2ccccn2)sc1C(=O)/C=C/c1ccc(Cl)cc1
HCC-2998 colon
  GI50: 383 nM
  TGI: 9620 nM
NCI-H460 lung
  GI50: 353 nM
  TGI: > 100000 nM
SF-295 CNS
  GI50: 308 nM
  TGI: 23000 nM
CAKI-1 renal
  GI50: 460 nM
  TGI: 13400 nM
T-47D breast
  GI50: 8680 nM
  TGI: > 100000 nM
SF-268 CNS
  GI50: 974 nM
  TGI: > 100000 nM
HT29 colon
  GI50: 470 nM
  TGI: 47500 nM
UO-31 renal
  GI50: 662 nM
  TGI: 15000 nM
NCI-H522 lung
  GI50: 241 nM
OVCAR-4 ovarian
  GI50: 778 nM
  TGI: > 100000 nM
SR leukemia
  GI50: 518 nM
  TGI: > 100000 nM
OVCAR-5 ovarian
  GI50: 587 nM
  TGI: > 79400 nM
HL-60(TB) leukemia
  GI50: 353 nM
M14 melanoma
  GI50: 342 nM
  TGI: > 67100 nM
HOP-92 NSCLC
  GI50: 1210 nM
  TGI: 31400 nM
SNB-19 CNS
  GI50: 556 nM
  TGI: > 100000 nM
COLO 205 colon
  GI50: 322 nM
  TGI: 1350 nM
TK-10 renal
  GI50: 1090 nM
  TGI: 24400 nM
HCT-116 colon
  GI50: 381 nM
  TGI: > 51800 nM
IGROV1 ovarian
  GI50: 413 nM
  TGI: 30600 nM
U251 CNS
  GI50: 370 nM
  TGI: > 47300 nM
OVCAR-8 ovarian
  GI50: 472 nM
  TGI: > 100000 nM
K-562 leukemia
  GI50: 395 nM
  TGI: > 100000 nM
KM12 colon
  GI50: 377 nM
  TGI: 15900 nM
SK-MEL-28 melanoma
  GI50: 2190 nM
  TGI: > 100000 nM
MDA-MB-435
  GI50: 201 nM
  TGI: 515 nM
MCF7 breast
  GI50: 344 nM
  TGI: > 100000 nM
NCI/ADR-RES ovarian
  GI50: 340 nM
  TGI: > 100000 nM
MALME-3M melanoma
  GI50: 734 nM
  TGI: 43800 nM
SK-MEL-2 melanoma
  GI50: 1360 nM
  TGI: > 100000 nM
A498 renal
  GI50: 143 nM
  TGI: 626 nM
UACC-62 melanoma
  GI50: 631 nM
  TGI: 49800 nM
NCI-H226 lung
  GI50: 1090 nM
  TGI: 26000 nM
BT-549 breast
  GI50: 344 nM
  TGI: 8640 nM
SW-620 colon
  GI50: 445 nM
  TGI: > 100000 nM
OVCAR-3 ovarian
  GI50: 325 nM
  TGI: 5480 nM
CCRF-CEM leukemia
  GI50: 445 nM
  TGI: > 100000 nM
EKVX NSCLC
  GI50: 846 nM
  TGI: > 100000 nM
UACC-257 melanoma
  GI50: 22800 nM
  TGI: > 100000 nM
RPMI-8226 leukemia
  GI50: 523 nM
  TGI: > 100000 nM
ACHN renal
  GI50: 559 nM
  TGI: 31000 nM
HS 578T breast
  GI50: 398 nM
  TGI: > 100000 nM
DU-145 prostate
  GI50: 383 nM
  TGI: > 71500 nM
SK-OV-3 ovarian
  GI50: 494 nM
  TGI: > 100000 nM
PC-3 prostate
  GI50: 368 nM
  TGI: > 100000 nM
NCI-H23 lung
  GI50: 567 nM
  TGI: > 100000 nM
SN12C renal
  GI50: 547 nM
  TGI: > 47400 nM
SK-MEL-5 melanoma
  GI50: 339 nM
  TGI: 1430 nM
786-0 renal
  GI50: 549 nM
  TGI: > 47200 nM
A549 NSCLC
  GI50: 426 nM
  TGI: > 100000 nM
MDA-MB-231 breast
  GI50: 366 nM
  TGI: 3580 nM
MOLT-4 leukemia
  GI50: 592 nM
  TGI: > 100000 nM
LOX IMVI melanoma
  GI50: 458 nM
  TGI: > 40800 nM
SNB-75 CNS
  GI50: 296 nM
  TGI: 24700 nM
HCT-15 colon
  GI50: 355 nM
  TGI: > 100000 nM
SF-539 CNS
  GI50: 252 nM
  TGI: 812 nM
HOP-62 NSCLC
  GI50: 574 nM
  TGI: > 100000 nM
